Assay results reported in patent US20160213633A1, “METHOD OF INDUCING ANTI-GLATIRAMER ACETATE ANTIBODY RESPONSE” (Teva Pharmaceutical Industries, Ltd., priority 2015, published 2016).
Read-outs that look alike come from different tables or passages of the source.

Experiments:
anti-GA IgG antibodies = test system: anti-GA IgG antibodies
Experimental: Sample positivity of each screen positive sample of each patient was confirmed in further testing by comparison to the confirmatory cut-point.
Unspiked and spiked samples were tested according to the method but only in 1/500 dilution.
The confirmatory cut-point factor is calculated to set the false positive rate at 1%. Reported value (RV) were the unspiked sample avg. ODA and the spiked sample avg. OD. RV were obtained from 50 naïve individuals, each measured 4 times over 2 days by 2 analysts.
Percent RA inhibition was calculated according to the following equation:
Percent inhibition=100×(1−(RA of spiked)/(RA of unspiked))

[1] = test system: anti-GA specific IgG antibodies; conditions: for average anti-GA IgG response (Screening RA %): GA treatment group, 40 mg sc three times a week, 1/500 dilution
Experimental: The screening results of the 1/500 dilution are presented as RA %.
Analysis was performed using ELISA.
Each plate should include the following samples: • System suitability Test (SST)—wells coated with purified human IgG. • SST Blank—wells coated with the blocking buffer only (w/o hIgG and human serum sample). […] To be subtracted from the NHS & PHS controls and from the human tested serum samples. • Sample 1-Sample 13—different tested serum samples. Each sample applied in two dilutions ( 1/500 and 1/1000)
All tested human serum samples of different time points from the same individual should be tested (in triplicates), if possible, in the same plate to allow comparison.
Prepare a 1.0 ug/ml dilution of hIgG coating antibody and coat the plate at 100 ul/well.
For washing, empty plate and tap out residual liquid, fill each well with 300 ul washing buffer and then invert plate to empty, tap out residual liquid onto paper towel.
For blocking, add 300 ul/well of blocking buffer to each well, seal the plate and incubate at room temperature for 1 hour, and wash the plates three times.
For sample loading, add 100 ul diluted test samples and/or control sample and/or sample buffer to each well. Seal the plate and incubate for 2 hours at room temperature, empty plate, tap out residual liquid and wash three times.
For detection antibody, prepare 1:4000 dilution of the biotinylated anti-hIgG detection antibody by diluting 2.5 ul biotinylated anti-hIgG antibody to 10 ml of blocking buffer. Prepare 10 ml biotinylated anti-human IgG detection antibody solution per plate and add 100 ul of the prepared detection antibodies to each well. Seal the plate and incubate for 1 hour at room temperature. Then empty plate, tap out residual liquid and wash five times.
For streptavidin conjugated horseradish peroxidase (HRP), prepare working dilution of the streptavidin conjugated HRP in blocking buffer. Then add 100 ul/well of the prepared streptavidin conjugated HRP solution, following shaking the plate for a few seconds. Then incubate the plate for 1 hour at room temperature in the dark, following washing five times.
For enzymatic reaction, TMB (3,3,5,5-tetramethylbenzidine peroxidase) is used. Mix equal volumes of TMB Peroxidase Substrate (Part 1) and Peroxidase Substrate Solution B in a clean glass container immediately prior to use. Dispense 100 ul of TMB solution into each well and incubate the plate for 15-30 minutes in the dark at 37° C. Stop the reaction with 100 ul stop solution per well (1N sulphuric acid) and shake the plate for a few seconds. Read the absorbance (ABS) of each well at 450 nm.
For blank subtraction, subtract the calculated average absorbance (ABS) of SST blank from average (AVG) ABS value of the SST. Subtract the calculated AVG ABS of blank from AVG ABS value of each test sample including PHS and NHS control samples. All data points that fall below 0.000 are set equal to 0.000.
To overcome plate-to-plate variability, the results are normalized by dividing the absorbance (ABS) of each test sample (including the controls) with that of the SST. This value is the Relative Absorbance (RA) ratio and is multiplied by 100 expressed in percent. These values are the reported response values of the test. The RA value is calculated according to the following equation: […]
The RA values of the normal human serum samples obtained from untreated individuals are used to calculate a cut-point value of the test. The cut-point value is used to distinguish between negative and positive human serum samples. In case that the calculated cut point value of the study is lower than the RA of the detection limit (2*Blank) of the study, the cut point is calculated as follows: […]
The results of the other dilution ( 1/1000) will be reported for monitoring, to allow semi quantitative comparison of the tested serum defined as positive.
All samples of each patient were tested on the same plate, whenever it was possible.

Question: “L-glutamic acid polymer with L-alanine, L-lysine and L-tyrosine, acetate (salt) [GA]” was tested. Which “Inhibition (%)” value (anti-GA IgG antibodies; Baseline visit; one line per patient) did it give?
Answer: The value was 68.2%.

Question: What about the “Inhibition (%)” value (anti-GA IgG antibodies; Baseline; confirmation test, spiking with GA; each line one patient) of the same substance?
Answer: The value was 65.5%.

Question: What about the “Inhibition (%)” value (anti-GA IgG antibodies; Month 1; confirmation test) of the same substance?
Answer: Its value is 63.8%.

Question: What about the “Confirmed Positivity (Yes/No)” value (anti-GA IgG antibodies; Month 1; individual patient) of the same substance?
Answer: The value was “YES”.

Question: What about the “Inhibition (%)” value (anti-GA IgG antibodies; Month 1 visit, individual patient) of the same substance?
Answer: Its value is 18.7%.

Question: What about the “Inhibition (%)” value (anti-GA IgG antibodies; Month 1 visit; individual patient) of the same substance?
Answer: Its value is 63.2%.

Question: What about the “Confirmed Positivity (Yes/No)” value (anti-GA IgG antibodies; Month 3; individual patient) of the same substance?
Answer: Its value is “YES”.

Question: And the “Inhibition (%)” value (anti-GA IgG antibodies; Month 3 visit, individual patient)?
Answer: Its value is 47.0%.

Question: And the “Inhibition (%)” value (anti-GA IgG antibodies; Month 6; confirmation test)?
Answer: Its value is 61.1%.

Question: What about the “Confirmed Positivity (Yes/No)” value (anti-GA IgG antibodies; Month 6; individual patient) of the same substance?
Answer: Its value is “YES”.

Question: What about the “Confirmed Positivity (Yes/No)” value (anti-GA IgG antibodies; Month 6 visit, individual patient) of the same substance?
Answer: The value was “YES”.

Question: And the “Inhibition (%)” value (anti-GA IgG antibodies; Month 9; confirmation test)?
Answer: Its value is 56.8%.

Question: And the “Confirmed Positivity (Yes/No)” value (anti-GA IgG antibodies; Month 9; individual patient)?
Answer: Its value is “YES”.

Question: What about the “Confirmed Positivity (Yes/No)” value (anti-GA IgG antibodies; Month 9 visit, individual patient) of the same substance?
Answer: Its value is “YES”.

Question: And the “Inhibition (%)” value (anti-GA IgG antibodies; Month 12; confirmation test)?
Answer: Its value is 58.5%.

Question: And the “Confirmed Positivity (Yes/No)” value (anti-GA IgG antibodies; Month 12; individual patient)?
Answer: Its value is “YES”.

Question: And the “Confirmed Positivity (Yes/No)” value (anti-GA IgG antibodies; Month 12 visit, individual patient)?
Answer: Its value is “YES”.

Question: What about the “Inhibition (%)” value (anti-GA IgG antibodies; Month 18; confirmation test) of the same substance?
Answer: Its value is 60.2%.

Question: And the “Confirmed Positivity (Yes/No)” value (anti-GA IgG antibodies; Month 18; individual patient)?
Answer: The value was “YES”.

Question: And the “Confirmed Positivity (Yes/No)” value (anti-GA IgG antibodies; Month 18 visit, individual patient)?
Answer: Its value is “YES”.

Question: What about the “Inhibition (%)” value (anti-GA IgG antibodies; Month 24; confirmation test) of the same substance?
Answer: The value was 66.8%.

Question: What about the “Inhibition (%)” value (anti-GA IgG antibodies; Month 24; confirmation test; individual patient) of the same substance?
Answer: Its value is 66.7%.

Question: What about the “Confirmed Positivity (Yes/No)” value (anti-GA IgG antibodies; Month 24; individual patient) of the same substance?
Answer: The value was “YES”.

Question: And the “Confirmed Positivity (Yes/No)” value (anti-GA IgG antibodies; Month 24 visit, individual patient)?
Answer: Its value is “YES”.

Question: What about the “Inhibition (%)” value (anti-GA IgG antibodies; confirmation test, individual patient, Month 1) of the same substance?
Answer: Its value is 63.3%.

Question: What about the “Inhibition (%)” value (anti-GA IgG antibodies; confirmation test, individual patient, Month 18) of the same substance?
Answer: The value was 59.5%.

Question: And the “Inhibition (%)” value (anti-GA IgG antibodies; confirmation test, individual patient, Month 24)?
Answer: The value was 58.2%.

Question: And the “presence of anti-GA IgG Abs in tested patients” value (anti-GA IgG antibodies; every tested patient (262 patients))?
Answer: Its value is “confirmed positive”.

Question: And the “positivity of non-baseline samples verified in the confirmatory test” value (anti-GA IgG antibodies; screen positive non-baseline samples; confirmatory cut-point […])?
Answer: Its value is 99.9%.

Question: What about the “Sample Positivity” value ([1]; Baseline visit, RA % vs cut-point 1.4, one line per patient) of the same substance?
Answer: The value was “Negative”.

Question: What about the “Sample Positivity” value ([1]; Baseline, cut-point RA % of 1.4, individual patient) of the same substance?
Answer: Its value is “Negative”.

Question: And the “average anti-GA IgG response (Screening RA %)” value ([1]; Baseline)?
Answer: Its value is 0.4568 RA %.

Question: What about the “average anti-GA IgG response (Screening RA %)” value ([1]; Month 1) of the same substance?
Answer: Its value is 34.75 RA %.

Question: And the “average anti-GA IgG response (Screening RA %)” value ([1]; Month 3)?
Answer: The value was 67.72 RA %.

Question: What about the “average anti-GA IgG response (Screening RA %)” value ([1]; Month 6) of the same substance?
Answer: The value was 39.69 RA %.

Question: What about the “average anti-GA IgG response (Screening RA %)” value ([1]; Month 9) of the same substance?
Answer: The value was 30.61 RA %.

Question: What about the “average anti-GA IgG response (Screening RA %)” value ([1]; Month 12) of the same substance?
Answer: Its value is 28.94 RA %.

Question: What about the “average anti-GA IgG response (Screening RA %)” value ([1]; Month 18) of the same substance?
Answer: The value was 24.9 RA %.

Question: What about the “average anti-GA IgG response (Screening RA %)” value ([1]; Month 24) of the same substance?
Answer: The value was 23.36 RA %.

Question: What about the “Sample Positivity” value ([1]; Month 1, RA % vs cut-point 1.4, one line per patient) of the same substance?
Answer: Its value is “POSITIVE”.

Question: What about the “Sample Positivity” value ([1]; Month 2 (so in the source), RA % vs cut-point 1.4, patient 537414) of the same substance?
Answer: Its value is “POSITIVE”.

Question: What about the “Sample Positivity” value ([1]; Month 3, RA % vs cut-point 1.4, one line per patient) of the same substance?
Answer: Its value is “POSITIVE”.

Question: And the “Sample Positivity” value ([1]; Month 3, cut-point RA % of 1.4, individual patient)?
Answer: The value was “POSITIVE”.

Question: And the “Sample Positivity” value ([1]; Month 6, RA % vs cut-point 1.4, one line per patient)?
Answer: Its value is “POSITIVE”.

Question: And the “Sample Positivity” value ([1]; Month 6, cut-point RA % of 1.4, individual patient)?
Answer: Its value is “POSITIVE”.

Question: What about the “Sample Positivity” value ([1]; Month 12, RA % vs cut-point 1.4, one line per patient) of the same substance?
Answer: The value was “POSITIVE”.

Question: What about the “antibody level versus baseline” value ([1]; about 12 months after the initial 40 mg/ml dose) of the same substance?
Answer: Its value is “higher than baseline”.

Question: And the “total anti-GA IgG levels” value ([1]; by month 6 of the treatment)?
Answer: Its value is “decreased”.

Question: And the “rate of increase of antibody level” value ([1]; first month compared to after the first month to the third month)?
Answer: Its value is “greater rate during the first month”.

Question: What about the “non-baseline samples higher than the cut-point value (RA % of 1.4)” value ([1]; human, in vivo) of the same substance?
Answer: The value was 96.2%.

Question: What about the “antibody level after the peak versus baseline” value ([1]; month 24) of the same substance?
Answer: Its value is “did not reach the baseline level”.
